Source: ChEMBL document CHEMBL1201862, “PubChem BioAssay data set” (2004)
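Protocol summary: plate cells (96-well), add compound at 5 concentrations, incubate 48 h, interpolate endpoints linearly. GI50: concentration for 50% inhibition of growth.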 The source made the active and inactive calls. Cut-off read from the data, not from the text of the source: active = GI50 up to about 1.1 µM and inactive = higher.

Experiments:
Assay in all cases: NCI-60 cell line screen, 48 h
[1] = system: A549
[2] = system: CCRF-CEM
[3] = system: COLO 205
[4] = system: EKVX
[5] = system: HOP-92
[6] = system: IGROV-1
[7] = system: K562
[8] = system: LOX IMVI
[9] = system: MCF7
[10] = system: MOLT-4
[11] = system: NCI-H460
[12] = system: OVCAR-4
[13] = system: PC-3
[14] = system: SF-268
[15] = system: SF-295
[16] = system: SK-MEL-28
[17] = system: SN12C
[18] = system: SNB-19
[19] = system: SW-620
[20] = system: T47D

O=C(CCCCCNC(=O)c1ccc(Cl)cc1)NO
GI50 [1]: 8.24 µM (inactive)
GI50 [2]: 2.42 µM (inactive)
GI50 [3]: 2.99 µM (inactive)
GI50 [4]: 8.97 µM (inactive)
GI50 [5]: 2.81 µM (inactive)
GI50 [6]: 5.16 µM (inactive)
GI50 [7]: 2.84 µM (inactive)
GI50 [8]: 4.76 µM (inactive)
GI50 [9]: 6.21 µM (inactive)
GI50 [10]: 1.88 µM (inactive)
GI50 [11]: 4.07 µM (inactive)
GI50 [12]: 20.6 µM (inactive)
GI50 [13]: 2.86 µM (inactive)
GI50 [14]: 6.87 µM (inactive)
GI50 [15]: 8.91 µM (inactive)
GI50 [16]: 5.32 µM (inactive)
GI50 [17]: 5.51 µM (inactive)
GI50 [18]: 15 µM (inactive)
GI50 [19]: 2.82 µM (inactive)
GI50 [20]: 1.41 µM (inactive)

NCCSCC(N)C(=O)O (stereo not given)
GI50 [1]: 47.6 µM (inactive)
GI50 [2]: 29 µM (inactive)
GI50 [3]: > 75.9 µM (inactive)
GI50 [4]: > 497 µM (inactive)
GI50 [5]: > 497 µM (inactive)
GI50 [6]: > 87.5 µM (inactive)
GI50 [7]: 37.2 µM (inactive)
GI50 [8]: > 497 µM (inactive)
GI50 [9]: 46.7 µM (inactive)
GI50 [10]: > 497 µM (inactive)
GI50 [11]: 60.1 µM (inactive)
GI50 [12]: > 497 µM (inactive)
GI50 [13]: > 100 µM (inactive)
GI50 [14]: > 497 µM (inactive)
GI50 [15]: > 497 µM (inactive)
GI50 [16]: > 497 µM (inactive)
GI50 [17]: > 497 µM (inactive)
GI50 [18]: > 497 µM (inactive)
GI50 [19]: 46.8 µM (inactive)
GI50 [20]: > 83 µM (inactive)

C[C@H](c1ccccc1)n1c(N)c(-c2nc3ccccc3s2)c2ccc([N+](=O)[O-])cc2c1=O
GI50 [1]: 9.98 µM (inactive)
GI50 [2]: 0.773 µM (active)
GI50 [3]: 5.43 µM (inactive)
GI50 [4]: 25.1 µM (inactive)
GI50 [5]: 1.59 µM (inactive)
GI50 [6]: 8.13 µM (inactive)
GI50 [7]: 1.23 µM (inactive)
GI50 [8]: 4.46 µM (inactive)
GI50 [9]: 9.27 µM (inactive)
GI50 [10]: 2.32 µM (inactive)
GI50 [11]: 4.09 µM (inactive)
GI50 [12]: 4.34 µM (inactive)
GI50 [13]: 3.09 µM (inactive)
GI50 [14]: 6.27 µM (inactive)
GI50 [15]: 4.7 µM (inactive)
GI50 [16]: 3 µM (inactive)
GI50 [17]: 8.32 µM (inactive)
GI50 [18]: 3.49 µM (inactive)
GI50 [19]: 4.14 µM (inactive)
GI50 [20]: 1.58 µM (inactive)

O=C(NC(=O)c1c(Cl)nc2sccn12)Nc1ccc(Cl)cc1
GI50 [1]: 81.3 µM (inactive)
GI50 [2]: > 100 µM (inactive)
GI50 [3]: > 100 µM (inactive)
GI50 [4]: > 91.6 µM (inactive)
GI50 [5]: 25.1 µM (inactive)
GI50 [6]: 49.4 µM (inactive)
GI50 [7]: > 100 µM (inactive)
GI50 [8]: 63.4 µM (inactive)
GI50 [9]: 15.5 µM (inactive)
GI50 [10]: > 100 µM (inactive)
GI50 [11]: > 85.9 µM (inactive)
GI50 [12]: 75.3 µM (inactive)
GI50 [13]: 53 µM (inactive)
GI50 [14]: 26.2 µM (inactive)
GI50 [15]: 33.6 µM (inactive)
GI50 [16]: > 100 µM (inactive)
GI50 [17]: 86.5 µM (inactive)
GI50 [18]: 28.4 µM (inactive)
GI50 [19]: > 100 µM (inactive)
GI50 [20]: 13.7 µM (inactive)

Oc1cc(F)cc2cccnc12
GI50 [1]: 1.02 µM (active)
GI50 [2]: 0.0778 µM (active)
GI50 [3]: 5.89 µM (inactive)
GI50 [4]: 0.418 µM (active)
GI50 [5]: 0.0356 µM (active)
GI50 [6]: 0.889 µM (active)
GI50 [7]: 0.105 µM (active)
GI50 [8]: 0.362 µM (active)
GI50 [9]: 0.0689 µM (active)
GI50 [10]: 0.206 µM (active)
GI50 [11]: 1.24 µM (inactive)
GI50 [12]: 0.435 µM (active)
GI50 [13]: 1.27 µM (inactive)
GI50 [14]: 0.218 µM (active)
GI50 [15]: 1.1 µM (active)
GI50 [16]: 48 µM (inactive)
GI50 [17]: 1.04 µM (active)
GI50 [18]: 5.31 µM (inactive)
GI50 [19]: 0.855 µM (active)
GI50 [20]: 1.3 µM (inactive)

O=P1(O)c2ccccc2CSCc2ccccc21
GI50 [1]: > 100 µM (inactive)
GI50 [2]: > 100 µM (inactive)
GI50 [3]: > 100 µM (inactive)
GI50 [4]: > 100 µM (inactive)
GI50 [5]: > 100 µM (inactive)
GI50 [6]: > 100 µM (inactive)
GI50 [7]: > 100 µM (inactive)
GI50 [8]: > 100 µM (inactive)
GI50 [9]: > 100 µM (inactive)
GI50 [10]: > 100 µM (inactive)
GI50 [11]: > 100 µM (inactive)
GI50 [12]: > 100 µM (inactive)
GI50 [13]: > 100 µM (inactive)
GI50 [14]: > 100 µM (inactive)
GI50 [15]: > 100 µM (inactive)
GI50 [16]: > 100 µM (inactive)
GI50 [17]: > 100 µM (inactive)
GI50 [18]: > 100 µM (inactive)
GI50 [19]: > 100 µM (inactive)
GI50 [20]: > 100 µM (inactive)

O=C1CC(NC(=O)C(F)(F)F)c2c(Br)sc(N3CCNCC3)c21 (stereo not given)
GI50 [1]: > 100 µM (inactive)
GI50 [2]: > 100 µM (inactive)
GI50 [3]: > 100 µM (inactive)
GI50 [4]: > 100 µM (inactive)
GI50 [5]: 53 µM (inactive)
GI50 [6]: > 100 µM (inactive)
GI50 [7]: > 100 µM (inactive)
GI50 [8]: > 100 µM (inactive)
GI50 [9]: > 100 µM (inactive)
GI50 [10]: > 100 µM (inactive)
GI50 [11]: > 100 µM (inactive)
GI50 [12]: > 100 µM (inactive)
GI50 [13]: > 100 µM (inactive)
GI50 [14]: > 100 µM (inactive)
GI50 [15]: > 100 µM (inactive)
GI50 [16]: > 100 µM (inactive)
GI50 [17]: > 100 µM (inactive)
GI50 [18]: > 100 µM (inactive)
GI50 [19]: > 100 µM (inactive)
GI50 [20]: > 100 µM (inactive)

COc1cccc(/N=N/C(=NNC(=O)c2ccc(C)cc2)c2ccc(N(C)C)cc2)c1
GI50 [1]: > 100 µM (inactive)
GI50 [2]: > 100 µM (inactive)
GI50 [3]: 44.3 µM (inactive)
GI50 [4]: > 100 µM (inactive)
GI50 [5]: > 100 µM (inactive)
GI50 [6]: > 100 µM (inactive)
GI50 [7]: 44 µM (inactive)
GI50 [8]: > 100 µM (inactive)
GI50 [9]: > 100 µM (inactive)
GI50 [10]: > 100 µM (inactive)
GI50 [11]: > 100 µM (inactive)
GI50 [12]: > 100 µM (inactive)
GI50 [13]: > 100 µM (inactive)
GI50 [14]: > 100 µM (inactive)
GI50 [15]: > 100 µM (inactive)
GI50 [16]: > 100 µM (inactive)
GI50 [17]: > 100 µM (inactive)
GI50 [18]: > 100 µM (inactive)
GI50 [19]: > 100 µM (inactive)
GI50 [20]: 0.832 µM (active)

COc1cc2ccnc3c2c(c1O)N(C)C=C3
GI50 [1]: 20.2 µM (inactive)
GI50 [2]: 3.88 µM (inactive)
GI50 [3]: 20.7 µM (inactive)
GI50 [4]: 17.4 µM (inactive)
GI50 [5]: 21.2 µM (inactive)
GI50 [6]: 6.11 µM (inactive)
GI50 [7]: 4.68 µM (inactive)
GI50 [8]: 8.39 µM (inactive)
GI50 [9]: 7.35 µM (inactive)
GI50 [10]: 4.26 µM (inactive)
GI50 [11]: 24.9 µM (inactive)
GI50 [12]: 16 µM (inactive)
GI50 [13]: 13.8 µM (inactive)
GI50 [14]: 17.7 µM (inactive)
GI50 [15]: 7.78 µM (inactive)
GI50 [16]: 24.9 µM (inactive)
GI50 [17]: 13.5 µM (inactive)
GI50 [18]: 25.5 µM (inactive)
GI50 [19]: 12 µM (inactive)
GI50 [20]: 7.38 µM (inactive)

C=C1C(=O)O[C@H]2[C@H]3O[C@@H](C[C@@H]12)[C@](C)(O)CC[C@@H]1O[C@@]1(C)CCC[C@H]3C
GI50 [1]: 25.5 µM (inactive)
GI50 [2]: 11.4 µM (inactive)
GI50 [3]: 16.4 µM (inactive)
GI50 [4]: 15.6 µM (inactive)
GI50 [5]: 16.4 µM (inactive)
GI50 [6]: 14.7 µM (inactive)
GI50 [7]: 23 µM (inactive)
GI50 [8]: 16 µM (inactive)
GI50 [9]: 21.4 µM (inactive)
GI50 [10]: 30.3 µM (inactive)
GI50 [11]: 24.8 µM (inactive)
GI50 [12]: 16.5 µM (inactive)
GI50 [13]: 32 µM (inactive)
GI50 [14]: 15.6 µM (inactive)
GI50 [15]: 68.9 µM (inactive)
GI50 [16]: 32 µM (inactive)
GI50 [17]: 20.3 µM (inactive)
GI50 [18]: 36.3 µM (inactive)
GI50 [19]: 19.2 µM (inactive)
GI50 [20]: 25.5 µM (inactive)
